Source: PMC5349880, “P-glycoprotein-mediated chemoresistance is reversed by carbonic anhydrase XII inhibitors” (Oncotarget, 2016)
Where a name gives a salt, the structure may show the parent alone.

Legend:
JC cells [1] = assay: In vivo tumor growth, JC breast tumor model; conditions: for reduction in tumor volume at day 18: co-administered with 5 mg/kg doxorubicin i.v.
Experimental: Data are presented as means ± SD.
Tumor growth was measured daily by caliper and calculated according to the equation (L × W^2)/2, where L = tumor length, W = tumor width.

JC cells [2] = assay: Cell viability (neutral red); format: cell-based, murine; conditions: for reduction in viability for individual compounds: JC cells, compound alone, 5 nM
[3] = Hematochemical parameters of tumor-bearing animals
TUBO cells = assay: Cell viability (neutral red); format: cell-based, murine; conditions: for reduction in viability for individual compounds: TUBO cells, compound alone, 5 nM
A549 cells = assay: Cell viability (neutral red); format: cell-based, human; conditions: for reduction in viability for individual compounds: A549 cells, compound alone, 5 nM
[4] = system: ca12 KO HT29/DX, A549/DX, MDA-MB-231 and U2OS/DX cells; assay: Intracellular doxorubicin accumulation in ca12 knocked-out cells; format: cell-based, human
Experimental: Data are presented as means ± SD (n = 4). […] The absorbance of viable cells was measured spectrophotometrically. Data are presented as means ± SD (n = 4).
Doxorubicin content was measured fluorimetrically as detailed previously by us. […] Cells were washed twice with PBS, detached with trypsin and sonicated. The intracellular drug content was measured by liquid scintillation. The results were expressed as nmol drug/mg cell proteins, according to titration curves previously set.
5 × 10^5 cells were transduced with 1 μg RNA vector (CRISPR pCas guide vector) ca12 or 1 μg not-targeting vector, mixed with 1 μg donor DNA vector (Origene, Rockville, MD), following the manufacturer's instructions. Stable KO cells were selected in complete medium containing 1 μg/ml puromycin for three weeks. Knockout efficacy was evaluated by immunoblotting, as reported above.

[5] = system: CCD-Co-18 cells, BEAS-2B cells, MCF10A cells, fibroblasts; assay: Cell viability (neutral red) of not-transformed cells; format: cell-based, human; conditions: 5 nM, 72 h; no detectable CAXII
Source text: Supplementary Figure S4: Effects of compounds 1, 2 and 4 on not-transformed cells. (A) Not-transformed human epithelial colon CCD-Co-18 cells, epithelial lung BEAS-2B cells, epithelial breast MCF10A cells, fibroblasts (fibro) were lysed and immunoblotted for CAXII and CAIX. A549/DX cells were used as control of CAXII- and CAIX-positive cells. β-tubulin level was used as control of equal protein loading. The figure is representative of one out of three experiments with similar results. (B) Cells were grown for 72 h in fresh medium (–), or in medium containing 5 nM compounds 1, 2 and 4, then stained with neutral red dye. The absorbance of viable cells was measured spectrophotometrically. Data are presented as means ± SD (n = 4).

U2OS/DX cells = assay: Cell viability (neutral red); format: cell-based, human; conditions: for reduction in viability for individual compounds: U2OS/DX cells, compound alone, 5 nM
MDA-MB-231 cells = assay: Cell viability (neutral red); format: cell-based, human; conditions: for reduction in viability for individual compounds: MDA-MB-231 cells, compound alone, 5 nM
HT29/DX cells = assay: Cell viability (neutral red); format: cell-based, human; conditions: for reduction in viability for individual compounds: HT29/DX cells, compound alone, 5 nM
[6] = Liver microsome metabolic stability (mouse); format: in vitro ADME; conditions: mouse liver microsomes; read-out: mouse liver microsome stability t1/2
Experimental: (§1) Plasma stability (mouse) and liver microsome metabolic stability (mouse) were measured by the Biopharmacy Laboratory, Shanghai Institute of Materia Medica, Chinese Academy of Sciences.

Plasma stability (mouse) = format: in vitro ADME; conditions: read-out: mouse plasma stability t1/2 (converted)
Experimental: as §1

T74D cells = assay: Cell viability (neutral red); format: cell-based, human; conditions: for reduction in viability for individual compounds: T74D cells, compound alone, 5 nM
SaOS/DX cells = assay: Cell viability (neutral red); format: cell-based, human; conditions: for reduction in viability for individual compounds: SaOS/DX cells, compound alone, 5 nM
A549/DX cells = assay: Cell viability (neutral red); format: cell-based, human; conditions: for reduction in viability for individual compounds: A549/DX cells, compound alone, 5 nM
Pgp = Pgp ATPase activity on Pgp-rich vesicles; format: cell-based; conditions: for reduction of Pgp ATPase activity: cells grown 24 h with 5 nM compound
Experimental: Pancadherin level was used as control of equal protein loading. no Ab: A549/DX sample immunoprecipitated without antibody. […] Data are presented as means ± SD (n = 3).
The assay was performed on Pgp-enriched membrane vesicles as detailed in [39]. Verapamil (10 μM) was added to the reaction mix to achieve a maximal activation of the Pgp ATPase activity. Results were expressed as nmol hydrolyzed phosphate (Pi)/min/mg proteins, according to the titration curve previously prepared.

human CA IX = biological target: human CA IX; parameters: method as in PMID 21851094, PMID 19827837, PMID 21314129; conditions: recombinant CA, errors ± 5%, three determinations; cited from earlier work
HT29 cells = assay: Cell viability (neutral red); format: cell-based, human; conditions: doxorubicin alone 72 h, IC50 ratio vs doxorubicin + tariquidar 25 nM
SKBR3 cells = assay: Cell viability (neutral red); format: cell-based, human; conditions: doxorubicin alone 72 h, IC50 ratio vs doxorubicin + tariquidar 25 nM
MCF7 cells = assay: Cell viability (neutral red); format: cell-based, human; conditions: doxorubicin alone 72 h, IC50 ratio vs doxorubicin + tariquidar 25 nM
SaOS cells = assay: Cell viability (neutral red); format: cell-based, human; conditions: doxorubicin alone 72 h, IC50 ratio vs doxorubicin + tariquidar 25 nM
U2OS cells = assay: Cell viability (neutral red); format: cell-based, human; conditions: doxorubicin alone 72 h, IC50 ratio vs doxorubicin + tariquidar 25 nM
[7] = system: drug-sensitive and drug-resistant cancer cells; assay: Cell viability (neutral red), whole panel of cancer cell lines; conditions: read-out: IC50 of tariquidar alone
[8] = C1 19 ng/kg intratumorally alone
[9] = C1 1900 ng/kg intratumorally alone
[10] = dox 5 mg/kg i.v. + C1 19 ng/kg intratumorally
[11] = dox 5 mg/kg i.v. + C1 1900 ng/kg intratumorally

## NS(=O)(=O)OCCCNS(=O)(=O)[C@@H]1O[C@H](CO)[C@@H](O)[C@H](O)[C@H]1O [Compound 1]
JC cells [1]; 19 ng/kg intratumorally
  reduction in tumor volume at day 18: 21%
JC cells [1]; 1900 ng/kg intratumorally
  reduction in tumor volume at day 18: 47%
JC cells [1]; 19 and 1900 ng/kg intratumorally, alone
  effect on tumor growth when used alone: no effect on tumor growth
JC cells [2]
  reduction in viability for individual compounds: ≤ 30 ± 10%
[3]; [8]
  ALT: 38 ± 12 U/l
  AP: 91 ± 13 U/l
  AST: 239 ± 72 U/l
  CPK: 271 ± 84 U/l
  Creatinine: 0.021 ± 0.011 mg/L
  LDH: 6723 ± 1023 U/l
[3]; [9]
  ALT: 45 ± 7 U/l
  AP: 83 ± 11 U/l
  AST: 261 ± 71 U/l
  CPK: 312 ± 81 U/l
  Creatinine: 0.033 ± 0.008 mg/L
  LDH: 6729 ± 835 U/l
[3]; [10]
  ALT: 44 ±11 U/l
  AP: 79 ± 11 U/l
  AST: 221 ± 71 U/l
  CPK: 701 ± 129 U/l
  Creatinine: 0.029 ± 0.011 mg/L
  LDH: 6091 ± 836 U/l
[3]; [11]
  ALT: 33 ± 15 U/l
  AP: 83 ± 19 U/l
  AST: 182 ± 44 U/l
  CPK: 691 ± 103 U/l
  Creatinine: 0.028 ± 0.008 mg/L
  LDH: 6241 ± 936 U/l
TUBO cells
  reduction in viability for individual compounds: ≤ 28 ± 7%
A549 cells
  reduction in viability for individual compounds: ≤ 28 ± 10%
[4]
  effect on doxorubicin intracellular accumulation: lost the ability to further increase the doxorubicin intracellular accumulation
[5]
  cytotoxic effect in not-transformed cells: did not exert any cytotoxic effect
U2OS/DX cells
  reduction in viability for individual compounds: ≤ 27 ± 8%
MDA-MB-231 cells
  reduction in viability for individual compounds: ≤ 36 ± 11%
HT29/DX cells
  reduction in viability for individual compounds: ≤ 31 ± 6%
[6]
  half-life: 2.25 h
Plasma stability (mouse)
  half-life: 0.7 h
T74D cells
  reduction in viability for individual compounds: ≤ 33 ± 12%
SaOS/DX cells
  reduction in viability for individual compounds: ≤ 32 ± 7%
A549/DX cells
  reduction in viability for individual compounds: ≤ 38 ± 7%
Pgp
  reduction of Pgp ATPase activity: ≥ 1.47 fold

## NS(=O)(=O)OC[C@H]1OC(O)[C@H](O)[C@@H](O)[C@@H]1O (stereo partly shown) [Compound 2]
Human CA IX
  Ki: 8.6 nM
JC cells [2]
  reduction in viability for individual compounds: ≤ 30 ± 10%
TUBO cells
  reduction in viability for individual compounds: ≤ 28 ± 7%
A549 cells
  reduction in viability for individual compounds: ≤ 28 ± 10%
[4]
  effect on doxorubicin intracellular accumulation: lost the ability to further increase the doxorubicin intracellular accumulation
[5]
  cytotoxic effect in not-transformed cells: did not exert any cytotoxic effect
U2OS/DX cells
  reduction in viability for individual compounds: ≤ 27 ± 8%
MDA-MB-231 cells
  reduction in viability for individual compounds: ≤ 36 ± 11%
HT29/DX cells
  reduction in viability for individual compounds: ≤ 31 ± 6%
T74D cells
  reduction in viability for individual compounds: ≤ 33 ± 12%
SaOS/DX cells
  reduction in viability for individual compounds: ≤ 32 ± 7%
A549/DX cells
  reduction in viability for individual compounds: ≤ 38 ± 7%
Pgp
  reduction of Pgp ATPase activity: ≥ 1.47 fold

## NS(=O)(=O)OC[C@H]1OC(O)[C@H](O)[C@@H](O)[C@H]1O (stereo partly shown) [Compound 4]
Human CA IX
  Ki: 62 nM
JC cells [2]
  reduction in viability for individual compounds: ≤ 30 ± 10%
TUBO cells
  reduction in viability for individual compounds: ≤ 28 ± 7%
A549 cells
  reduction in viability for individual compounds: ≤ 28 ± 10%
[4]
  effect on doxorubicin intracellular accumulation: lost the ability to further increase the doxorubicin intracellular accumulation
[5]
  cytotoxic effect in not-transformed cells: did not exert any cytotoxic effect
U2OS/DX cells
  reduction in viability for individual compounds: ≤ 27 ± 8%
MDA-MB-231 cells
  reduction in viability for individual compounds: ≤ 36 ± 11%
HT29/DX cells
  reduction in viability for individual compounds: ≤ 31 ± 6%
T74D cells
  reduction in viability for individual compounds: ≤ 33 ± 12%
SaOS/DX cells
  reduction in viability for individual compounds: ≤ 32 ± 7%
A549/DX cells
  reduction in viability for individual compounds: ≤ 38 ± 7%
Pgp
  reduction of Pgp ATPase activity: ≥ 1.47 fold

## COc1cccc2c1C(=O)c1c(O)c3c(c(O)c1C2=O)C[C@@](O)(C(=O)CO)C[C@@H]3O[C@H]1C[C@H](N)[C@H](O)[C@H](C)O1 [dox, doxorubicin, reference compound]
HT29 cells
  Rf dox: 1.39
SKBR3 cells
  Rf dox: 2.19
JC cells [2]; JC, doxorubicin alone 72 h, IC50 ratio vs doxorubicin + tariquidar 25 nM
  Rf dox: 7.61
[3]; doxorubicin 5 mg/kg i.v. alone
  ALT: 37 ± 16 U/l
  AST: 288 ± 72 U/l
  CPK: 673 ± 172 U/l
  Creatinine: 0.029 ± 0.017 mg/L
  LDH: 6272 ± 812 U/l
TUBO cells; TUBO, doxorubicin alone 72 h, IC50 ratio vs doxorubicin + tariquidar 25 nM
  Rf dox: 4.23
MCF7 cells
  Rf dox: 1.32
A549 cells; A549, doxorubicin alone 72 h, IC50 ratio vs doxorubicin + tariquidar 25 nM
  Rf dox: 1.31
SaOS cells
  Rf dox: 1.43
U2OS/DX cells; U2OS/DX, doxorubicin alone 72 h, IC50 ratio vs doxorubicin + tariquidar 25 nM
  Rf dox: 15.44
MDA-MB-231 cells; MDA-MB-231, doxorubicin alone 72 h, IC50 ratio vs doxorubicin + tariquidar 25 nM
  Rf dox: 4.55
HT29/DX cells; HT29/DX, doxorubicin alone 72 h, IC50 ratio vs doxorubicin + tariquidar 25 nM
  Rf dox: 4.26
U2OS cells
  Rf dox: 1.05
T74D cells; T74D, doxorubicin alone 72 h, IC50 ratio vs doxorubicin + tariquidar 25 nM
  Rf dox: 0.98
SaOS/DX cells; SaOS/DX, doxorubicin alone 72 h, IC50 ratio vs doxorubicin + tariquidar 25 nM
  Rf dox: 14.97
A549/DX cells; A549/DX, doxorubicin alone 72 h, IC50 ratio vs doxorubicin + tariquidar 25 nM
  Rf dox: 4.45

## COc1cc2c(cc1OC)CN(CCc1ccc(NC(=O)c3cc(OC)c(OC)cc3NC(=O)c3cnc4ccccc4c3)cc1)CC2 [tariquidar, Tariquidar dihydrochloride, reference compound]
[7]
  IC50: > 10000 nM
Pgp; tariquidar 25 nM added during the assay
  effect on Pgp ATPase activity: strongly decreased ATPase activity
